In ChEMBL document CHEMBL1201862, “PubChem BioAssay data set” (2004):
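Growth conditions: 96-well plates. Treatment: test compound, 48 hours, 5 concentrations. Analysis: linear interpolation between bracketing concentrations; unreached endpoints set to highest concentration. Here, GI50 denotes the concentration required for 50% inhibition of growth.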 Activity calls are given as the source filed them. No stated cut-off is given here; in the data, active = GI50 up to about 1.1 µM and inactive = higher. Square brackets hold non-standard residues; d marks the D form. Peptide text beside a SMILES is read from it. * marks the point of attachment. Phe(4-NO2) = N[CH](Cc1ccc([N+](=O)[O-])cc1)C(=O)O; Cbz = O=C(OCc1ccccc1)*

What was measured:
Experiment in all cases: NCI-60 cell line screen, 48 h
[1] = system: CAKI-1
[2] = system: CCRF-CEM
[3] = system: HT-29
[4] = system: MDA-MB-435
[5] = system: RXF 393
[6] = system: Malme-3M
[7] = system: OVCAR-8
[8] = system: Hs-578T
[9] = system: SF-268
[10] = system: 786-0
[11] = system: UO-31
[12] = system: MDA-N
[13] = system: MCF7
[14] = system: T47D
[15] = system: OVCAR-5
[16] = system: SN12C
[17] = system: DU-145
[18] = system: SNB-75
[19] = system: BT-549
[20] = system: SNB-19
[21] = system: NCI-H460
[22] = system: HCT-15
[23] = system: HCC 2998
[24] = system: RPMI-8226
[25] = system: HOP-62
[26] = system: UACC-257
[27] = system: K562
[28] = system: A549
[29] = system: NCI-H226
[30] = system: LOX IMVI
[31] = system: NCI-H23
[32] = system: MOLT-4
[33] = system: SF-539
[34] = system: HCT-116
[35] = system: MDA-MB-231
[36] = system: SK-MEL-5
[37] = system: SW-620
[38] = system: EKVX
[39] = system: IGROV-1
[40] = system: HL-60
[41] = system: OVCAR-3
[42] = system: A498
[43] = system: SK-MEL-28
[44] = system: COLO 205
[45] = system: U-251
[46] = system: PC-3
[47] = system: NCI-H522
[48] = system: NCI/ADR-RES
[49] = system: KM12
[50] = system: SR
[51] = system: TK-10
[52] = system: SF-295
[53] = system: ACHN
[54] = system: UACC-62
[55] = system: SK-OV-3
[56] = system: OVCAR-4
[57] = system: M14
[58] = system: SK-MEL-2
[59] = system: HOP-92

With `CN(C)Cc1cc(C(=O)/C=C/c2ccc(Cl)cc2)cc(CN(C)C)c1O` the GI50 [1] was 6.05 µM (inactive), the GI50 [2] was 14.4 µM (inactive) and the GI50 [3] was 5.6 µM (inactive). For the same compound, the GI50 [4] was 13.7 µM (inactive), the GI50 [5] was 10.9 µM (inactive) and the GI50 [6] was 11.7 µM (inactive). For the same compound, the GI50 [7] was 7.59 µM (inactive), the GI50 [8] was 17.5 µM (inactive) and the GI50 [9] was 18.2 µM (inactive). For the same compound, the GI50 [10] was 5.93 µM (inactive), the GI50 [11] was 7.4 µM (inactive) and the GI50 [12] was 10.4 µM (inactive). The GI50 [13] was 14.4 µM (inactive), the GI50 [14] was 27 µM (inactive) and the GI50 [15] was 24.2 µM (inactive). The GI50 [16] was 10.8 µM (inactive), the GI50 [17] was 12.1 µM (inactive) and the GI50 [18] was 8.75 µM (inactive). The GI50 [19] was 3.7 µM (inactive), the GI50 [20] was 8.75 µM (inactive) and the GI50 [21] was 10.1 µM (inactive). For the same compound, the GI50 [22] was 15.9 µM, the GI50 [23] was 18.7 µM (inactive) and the GI50 [24] was 7.89 µM (inactive). For the same compound, the GI50 [25] was 4.36 µM (inactive), the GI50 [26] was 15.6 µM (inactive) and the GI50 [27] was 5.41 µM (inactive). For the same compound, the GI50 [28] was 8.73 µM (inactive), the GI50 [29] was 22 µM (inactive) and the GI50 [30] was 4.43 µM (inactive). The GI50 [31] was 15.7 µM (inactive), the GI50 [32] was 16.3 µM (inactive) and the GI50 [33] was 19.3 µM (inactive). The GI50 [34] was 12.9 µM (inactive), the GI50 [35] was 11.4 µM (inactive) and the GI50 [36] was 11.4 µM (inactive). The GI50 [37] was 6.65 µM (inactive), the GI50 [38] was 12.8 µM (inactive) and the GI50 [39] was 12.5 µM (inactive). The GI50 [40] was 2.86 µM (inactive), the GI50 [41] was 3.06 µM (inactive) and the GI50 [42] was 12.7 µM (inactive). The GI50 [43] was 13.4 µM (inactive), the GI50 [44] was 4.27 µM (inactive) and the GI50 [45] was 13.4 µM (inactive). The GI50 [46] was 10.8 µM (inactive), the GI50 [47] was 3.24 µM (inactive) and the GI50 [48] was 15.8 µM (inactive). For the same compound, the GI50 [49] was 4.17 µM (inactive), the GI50 [50] was 11.1 µM (inactive) and the GI50 [51] was 18.4 µM (inactive). For the same compound, the GI50 [52] was 13.3 µM (inactive) and the GI50 [53] was 4.04 µM (inactive).

`CCOC(=O)CCC(NC(=O)OCc1ccccc1)C(=O)NC(CCC(=O)OCC)C(=O)NC(CCC(=O)OCC)C(=O)NC(CCC(=O)OCC)C(=O)NC(CCC(=O)OCC)C(=O)NC(Cc1ccc([N+](=O)[O-])cc1)C(=O)NC(CCC(=O)OCC)C(=O)NC(CCC(=O)OCC)C(=O)NC(CCC(=O)OCC)C(=O)NC(CCC(=O)OCC)C(=O)NC(CCC(=O)OCC)C(=O)OCC` (centres undefined) (Cbz-E(OEt)E(OEt)E(OEt)E(OEt)E(OEt)[Phe(4-NO2)]E(OEt)E(OEt)E(OEt)E(OEt)E(OEt)-OEt; configuration not given here) was tested, and the GI50 [2] was > 50 µM (inactive), the GI50 [3] was > 50 µM (inactive) and the GI50 [4] was > 50 µM (inactive). The GI50 [5] was > 50 µM (inactive), the GI50 [6] was > 50 µM (inactive) and the GI50 [8] was > 50 µM (inactive). The GI50 [54] was > 50 µM (inactive), the GI50 [9] was > 50 µM (inactive) and the GI50 [10] was > 50 µM (inactive). For the same compound, the GI50 [11] was > 50 µM (inactive), the GI50 [12] was > 50 µM (inactive) and the GI50 [13] was > 50 µM (inactive). The GI50 [14] was > 50 µM (inactive), the GI50 [55] was > 50 µM (inactive) and the GI50 [15] was > 50 µM (inactive). The GI50 [16] was > 50 µM (inactive), the GI50 [17] was > 50 µM (inactive) and the GI50 [18] was > 50 µM (inactive). The GI50 [19] was > 50 µM (inactive), the GI50 [20] was > 50 µM (inactive) and the GI50 [21] was > 50 µM (inactive). The GI50 [22] was > 50 µM, the GI50 [23] was > 50 µM (inactive) and the GI50 [24] was > 50 µM (inactive). For the same compound, the GI50 [25] was > 50 µM (inactive), the GI50 [27] was > 50 µM (inactive) and the GI50 [28] was > 50 µM (inactive). For the same compound, the GI50 [29] was > 50 µM (inactive), the GI50 [30] was > 50 µM (inactive) and the GI50 [31] was > 50 µM (inactive). The GI50 [32] was > 50 µM (inactive), the GI50 [33] was > 50 µM (inactive) and the GI50 [35] was > 5 µM (inactive). For the same compound, the GI50 [36] was > 50 µM (inactive), the GI50 [37] was > 50 µM (inactive) and the GI50 [38] was > 50 µM (inactive). The GI50 [39] was > 50 µM (inactive), the GI50 [40] was > 50 µM (inactive) and the GI50 [56] was 23 µM (inactive). The GI50 [41] was > 50 µM (inactive), the GI50 [42] was > 50 µM (inactive) and the GI50 [43] was > 50 µM (inactive). The GI50 [44] was > 50 µM (inactive), the GI50 [45] was > 50 µM (inactive) and the GI50 [46] was > 50 µM (inactive). For the same compound, the GI50 [47] was > 50 µM (inactive), the GI50 [48] was > 50 µM (inactive) and the GI50 [57] was 16.8 µM (inactive). For the same compound, the GI50 [49] was > 50 µM (inactive), the GI50 [50] was > 50 µM (inactive) and the GI50 [51] was > 50 µM (inactive). The GI50 [58] was > 50 µM (inactive) and the GI50 [53] was > 50 µM (inactive).

For `C=CCOC(=O)C1=C(C)N=C2N[C@H](CCCCCCCCC)C[C@@H]3CCC1N23` (some centres undefined), the GI50 [1] was 34 µM (inactive), the GI50 [2] was 36.4 µM (inactive) and the GI50 [3] was 27.9 µM (inactive). For the same compound, the GI50 [4] was 20.3 µM (inactive), the GI50 [5] was 19.5 µM (inactive) and the GI50 [6] was 17.3 µM (inactive). For the same compound, the GI50 [7] was 30.5 µM (inactive), the GI50 [8] was 21.5 µM (inactive) and the GI50 [54] was 17.7 µM (inactive). For the same compound, the GI50 [9] was 19.3 µM (inactive), the GI50 [10] was 20 µM (inactive) and the GI50 [11] was 17.1 µM (inactive). For the same compound, the GI50 [12] was 18.4 µM (inactive), the GI50 [13] was 18 µM (inactive) and the GI50 [14] was 23.2 µM (inactive). For the same compound, the GI50 [55] was 27.5 µM (inactive), the GI50 [15] was 22.7 µM (inactive) and the GI50 [16] was 18.2 µM (inactive). For the same compound, the GI50 [17] was 27.4 µM (inactive), the GI50 [18] was 30.5 µM (inactive) and the GI50 [19] was 19.9 µM (inactive). The GI50 [20] was 19.2 µM (inactive), the GI50 [21] was 25.4 µM (inactive) and the GI50 [22] was 21.3 µM. The GI50 [23] was 21.9 µM (inactive), the GI50 [24] was 30.7 µM (inactive) and the GI50 [25] was 30.5 µM (inactive). For the same compound, the GI50 [26] was 18.3 µM (inactive), the GI50 [27] was 30.3 µM (inactive) and the GI50 [28] was 30.1 µM (inactive). For the same compound, the GI50 [29] was 17.9 µM (inactive), the GI50 [30] was 21.6 µM (inactive) and the GI50 [31] was 20 µM (inactive). For the same compound, the GI50 [32] was 30.1 µM (inactive), the GI50 [33] was 19 µM (inactive) and the GI50 [34] was 18.8 µM (inactive). For the same compound, the GI50 [35] was 21.5 µM (inactive), the GI50 [36] was 17.7 µM (inactive) and the GI50 [59] was 19.3 µM (inactive). The GI50 [37] was 28.7 µM (inactive), the GI50 [38] was 22.4 µM (inactive) and the GI50 [39] was 21.6 µM (inactive). The GI50 [40] was 26.4 µM (inactive), the GI50 [56] was 21 µM (inactive) and the GI50 [41] was 19.4 µM (inactive). For the same compound, the GI50 [43] was 21.7 µM (inactive), the GI50 [44] was 21.3 µM (inactive) and the GI50 [45] was 20.9 µM (inactive). For the same compound, the GI50 [46] was 21.6 µM (inactive), the GI50 [47] was 16.7 µM (inactive) and the GI50 [48] was 22.8 µM (inactive). The GI50 [57] was 18.7 µM (inactive), the GI50 [49] was 34 µM (inactive) and the GI50 [50] was 28.4 µM (inactive). The GI50 [51] was 19.2 µM (inactive), the GI50 [52] was 34.9 µM (inactive) and the GI50 [58] was 19.8 µM (inactive). For the same compound, the GI50 [53] was 21.5 µM (inactive).
